Results taken from article PMC12117180, “DNA‐Binding Properties of Non‐Intercalating Water‐Soluble Organometallic Ir(III) Luminophores” (Chemistry (Weinheim an Der Bergstrasse, Germany), 2025).

What was measured:
[1] = Solubility limits in buffer from saturated solutions; assay type: physicochemical
Procedure: We next estimated the solubility limits of the complexes in buffer (25 mM MOPS, pH 7.0, 50 mM NaCl) from saturated solutions, using the molar absorption coefficients in Table S4 (see also Figures S14–18). […] These values mirror the trend predicted (via logP^[ [39] ^]) for the relative hydrophobicities of the cyclometalating ligands, which is ultimately controlled by the ligand substituent (H vs Me vs OMe vs Cl vs OCF3).

fish sperm DNA (FSDNA) = experiment: UV-visible titrations with fish sperm DNA, multiple independent binding sites (MIS) model; conditions: 25 mM MOPS, 50 mM NaCl, pH 7.0, 25 °C; for K (apparent DNA-binding affinity): association constant
Procedure: We then studied the interactions of the complexes with double‐stranded DNA using UV‐visible titrations. Briefly, solutions of 44.14, 31.52, 35.17, 37.55, and 29.62 µM for the five complexes [Ir(L1‐5)2(en)]Cl, respectively, were titrated (in duplicate) with fish sperm DNA (FSDNA) at 25 °C (Figure 7 and Figures S19–22). The interactions between these complexes and DNA turned out not to involve a single type of binding site (vide infra). Nevertheless, the data from the UV‐visible titrations were provisionally analyzed globally using the multiple independent binding sites (MIS) model to determine apparent binding affinities and apparent binding site sizes (Table 4).
All solutions were prepared by dissolving solids in a buffer with stirring, then filtration through a 0.22 µm PES filter to remove solid particles and ensure uniform, saturated solutions before titration. Concentrations were determined using extinction coefficients. MOPS buffer was prepared by dissolving MOPS (3‐(N‐morpholino)propanesulfonic acid, NaCl (all obtained from Fisher and used as supplied) in deionized water (Elga Purelab Flex), adjusting the pH to 7.0 using a NaOH solution (pH of the buffer was determined using a Hanna Instruments pH211 microprocessor pH meter with a Bioblock Scientific pH probe) and making up the solution to 0.5 liter. A stock solution of fish sperm DNA was prepared by dissolving approximately 0.1 g of fish sperm DNA in 10 mL of the buffer. The resulting solution was dialyzed (3.5 kDa MWCO, Visking, Medicell International Ltd) against 0.5 liters of buffer. Following dialysis, the DNA concentration was determined using UV‐visible spectroscopy using a molar absorption coefficient ε260 nm = 12 800 M^−1 cm^−1.^[ [37] ^] Spectra and titrations were plotted in OriginLab Origin 2019b. The titration data were analyzed globally for each complex using an in‐house written version of the multiple independent binding sites model which also explicitly takes changing ligand concentrations into account.^[ [49] ^]

[2] = ITC dilution experiments (self-aggregation); assay type: physicochemical
Description: To explore whether multiple binding modes are indeed present for these complexes interacting with DNA, we turned to isothermal titration calorimetry (ITC). ITC typically involves titrating a relatively concentrated solution of the binder into a more dilute solution of DNA (instead of titrating a relatively concentrated DNA solution into a more dilute solution of the binder). Therefore, the possible self‐aggregation of the DNA binders was explored through dilution experiments in which solutions of a complex at representative concentrations in buffer (25 mM MOPS, pH 7.0, 50 mM NaCl) were diluted into matched buffer in the calorimeter cell.
Further experiments at different complex concentrations confirm this sigmoidal behavior of the dilution heat effects around a critical concentration. […] Nevertheless, self‐assembled nanoparticles of organic fluorophores with micromolar CACs have been reported.^[ [43] ^]
CACs are typical for cooperative aggregation processes, such as micellization, and we therefore interpret the data as [Ir(L1)2(en)]Cl cooperatively self‐aggregating in these buffer conditions (25 mM MOPS, pH 7.0, 50 mM NaCl). While it is known that the determination of aggregation numbers from titration calorimetry data is challenging, other thermodynamic parameters are readily available. […] The molar enthalpy for self‐aggregation of −92 kJ mol^−1 (difference between average pre‐ and post‐CAC heat effects) indicates a highly exothermic self‐aggregation process accompanied by a T×Δ°S aggregation of […]. […]
Buffers employed in the experiments were 50 mM NaCl and 25 mM MOPS (adjusted to pH 7 with NaOH) and 5 mM NaCl and 25 mM MOPS (adjusted to pH 7 with NaOH). […] Concentrations of solutions of complexes and of DNA were determined using UV‐visible spectroscopy. […]

FSDNA [3] = experiment: Isothermal titration calorimetry of DNA binding, two types of independent binding sites; set-up: species or system fish; conditions: 25 mM MOPS, 5 mM NaCl, pH 7.0, 25 °C; for K A1 / n A1: high-affinity site; for K B1 / n B1: low-affinity site
Procedure: Cooperative self‐aggregation of DNA binders in combination with DNA binding makes data analysis complex because of the presence of coupled equilibria.^[ [46] ^] In the case of aggregation of charged species, the aggregation process tends to be very sensitive to salt concentration. We therefore studied self‐aggregation in buffer at a lower salt concentration (25 mM MOPS, pH 7.0, 5 mM NaCl) and found no indications of self‐aggregation. We therefore opted to carry out the ITC experiments in a buffer with a reduced salt concentration of 5 mM. Titrations were carried out in two parts, viz. a first titration focussing on the first binding event followed by a second titration focussing on the second binding event (Figures S23–25 with complex and DNA concentrations for each individual titration in Table S5). Figures S23 and S25 clearly show two binding events, as anticipated from UV‐visible titrations.
We analyzed the data using a model involving two types of independent binding sites, correcting for dilution heat effects in our custom data analysis software I2CITC^[ [45], [47] ^] […] The complexes also bind to a second lower affinity type of binding site with a size of approximately 2–3 basepairs with an affinity K B1 of the order of 10^5 M^−1 in an exothermic process. Based on the combination of binding site size and the exothermic interaction, we attribute the low‐affinity binding event to non‐specific binding of the cationic complexes to negatively charged DNA, supported by hydrophobic interactions between complexes. The binding site size of the higher affinity binding site exceeds the dimensions of the complexes of around five base pairs, as estimated from the docking studies (vide supra). […] Intriguingly, the relatively low ΔH A1 is in line with groove binding.^[ [48] ^]
Buffers employed in the experiments were 50 mM NaCl and 25 mM MOPS (adjusted to pH 7 with NaOH) and 5 mM NaCl and 25 mM MOPS (adjusted to pH 7 with NaOH). Solutions of DNA were prepared by diluting the DNA stock solutions (see UV‐visible titrations) as required. Complex solutions were prepared by dissolving 5 mg of the complex in 5 mL of buffer, then filtered through a 0.22 µm PES filter to ensure uniform solutions for ITC titration. Concentrations of solutions of complexes and of DNA were determined using UV‐visible spectroscopy. Calorimetric titrations were carried out at 25 °C on a MicroCal PEAQ‐ITC microcalorimeter (Malvern Instruments Ltd., Worcestershire, UK). The instrument was operated by applying a reference power of 10 μcal/s in high‐feedback mode, stirring the sample cell contents at 750 rpm, with a pre‐injection initial delay of 60 s. Solutions of complexes were loaded into the calorimeter injection syringe and DNA solutions were loaded into the sample cell. All experiments involved an initial injection of 0.4 µL in 0.8 s followed by 18 further injections of 2.0 µL in 4.0 s per injection into the calorimeter sample cell. Injections were spaced by at least 90 s to allow full recovery of the baseline. Raw data were treated using MicroCal PEAQ‐ITC Analysis Software (1.41) to generate both integrated heat effects per injection (ΔQ) and molar heat effects per injection (ΔH). Further data analysis was carried out using I2CITC.^[ [45], [47] ^]

FSDNA [4] = experiment: Steady-state and time-resolved luminescence in absence and presence of FSDNA; set-up: species or system fish; conditions: for luminescence intensity enhancement following the addition of DNA: λex = 410 nm, 25 mM MOPS, pH 7.0, 50 mM NaCl, uncorrected for dilution; for increase (lifetime) on DNA binding: time-resolved luminescence, with vs without FSDNA
Procedure: Finally, the influence of DNA binding on the luminescence properties of the complexes was investigated. Steady‐state fluorescence spectra (using λ ex = 410 nm) were recorded both in the absence and presence of FSDNA, using a buffer of 25 mM MOPS, pH 7.0, and 50 mM NaCl. First, the appearance and shape of the emission bands (Figure S26) were not influenced by binding to DNA; the position of the emission maxima and the peak shape were generally retained upon the addition of DNA. […] The time‐resolved luminescence measurements support the inhibition of excited state quenching processes leading to the observed increase in integrated intensity.
All reactions were performed with the use of a vacuum line and Schlenk techniques. Reagents were commercial grade and were used without further purification. ^1H, ^19F, and ^13C NMR spectra were recorded on a Bruker Avance dpx 500 MHz spectrometer and were recorded on d^6‐DMSO solutions. ^1H, ^13C{^1H} NMR chemical shifts (δ) were determined relative to internal tetramethylsilane, Si(CH3)4 and are given in ppm. Mass spectra were obtained by the staff at Cardiff University using a Waters Xevo G2‐XS QTof spectrometer. All photophysical data was obtained on a JobinYvon‐Horiba Fluorolog‐3 spectrometer fitted with a JY TBX picosecond photodetection module. The pulsed source was a Nano‐LED configured for 295 nm output operating at 1 MHz. Luminescence lifetime profiles were obtained using the JobinYvon–Horiba FluoroHub single photon counting module and the data fits yielded the lifetime values using DAS6 deconvolution software. IR spectra were recorded on an ATR‐equipped Shimadzu IRAffinity‐1 spectrophotometer. UV‐vis data were recorded as solutions on a Perkin Elmer Lamda20 spectrophotometer. The pH values of aqueous solutions were determined using a Hanna Instruments pH211 microprocessor pH meter with a Bioblock Scientific pH electrode.

[5] = buffer 25 mM MOPS, pH 7.0, 50 mM NaCl, saturated solutions, estimated via molar absorption coefficients

Row | Solubility limit ([1]; pH 7) | critical aggregation concentration (CAC) ([2]; 25 mM MOPS, pH 7.0, 50 mM NaCl, 25 °C) | molar enthalpy for self‐aggregation ([2]; difference between average pre‐ and post‐CAC heat effects) | equilibrium constant for aggregation ([2]; from CAC, 25 mM MOPS, pH 7.0, 50 mM NaCl) | SMILES | binding site size (apparent) (fish sperm DNA (FSDNA)) | K (apparent DNA-binding affinity) (fish sperm DNA (FSDNA)) | K A1 (FSDNA [3]) | n A1 (FSDNA [3]) | K B1 (FSDNA [3]) | n B1 (FSDNA [3]) | Solubility limit [1, 5] | luminescence intensity enhancement following the addition of DNA (FSDNA [4]) | increase (lifetime) on DNA binding (FSDNA [4])
1 | 978 µM | 2.1 µM | -22 kcal/mol | 480000 M⁻¹ | NCCN.[Cl-].[Ir+3].[c-]1ccccc1-c1nc2ccccc2s1.[c-]1ccccc1-c1nc2ccccc2s1 [[Ir(L1)2(en)]Cl] | 0.70 ± 0.15 base pairs | 4.3 ± 5.3 10^5 M^−1 | 239 10^6 M^−1 | 0.06 bp^−1 | 0.14 10^6 M^−1 | 0.46 |  |  | 
2 |  |  |  |  | Cc1c[c-]c(-c2nc3ccccc3s2)cc1.Cc1c[c-]c(-c2nc3ccccc3s2)cc1.NCCN.[Cl-].[Ir+3] [[Ir(L2)2(en)]Cl] | 0.64 ± 0.05 base pairs | 4.2 ± 3.7 10^5 M^−1 | 132 10^6 M^−1 | 0.03 bp^−1 | 0.41 10^6 M^−1 | 0.57 | 327 µM |  | 
3 |  |  |  |  | COc1c[c-]c(-c2nc3ccccc3s2)cc1.COc1c[c-]c(-c2nc3ccccc3s2)cc1.NCCN.[Cl-].[Ir+3] [[Ir(L3)2(en)]Cl] | 0.76 ± 0.04 base pairs | 4.6 ± 2.3 10^5 M^−1 | 19 10^6 M^−1 | 0.07 bp^−1 | 0.13 10^6 M^−1 | 0.31 | 739 µM | 40–65% | 
4 |  |  |  |  | Clc1c[c-]c(-c2nc3ccccc3s2)cc1.Clc1c[c-]c(-c2nc3ccccc3s2)cc1.NCCN.[Cl-].[Ir+3] [[Ir(L4)2(en)]Cl] | 0.43 ± 0.19 base pairs | 0.8 ± 0.7 10^5 M^−1 |  |  |  |  | 100 µM |  | 75%
5 |  |  |  |  | FC(F)(F)Oc1c[c-]c(-c2nc3ccccc3s2)cc1.FC(F)(F)Oc1c[c-]c(-c2nc3ccccc3s2)cc1.NCCN.[Cl-].[Ir+3] [[Ir(L5)2(en)]Cl] | 0.92 ± 0.18 base pairs | 0.6 ± 0.3 10^5 M^−1 |  |  |  |  | 75 µM | 40–65% | 98%
